ChEMBL document CHEMBL3588743, “Cell-based and virtual fragment screening for adrenergic α2C receptor agonists” (Bioorg Med Chem, 2015)

Experiments:
[1] = target: T1, Alpha-2C adrenergic receptor (Homo sapiens) (UniProt P18825); test: (§1) Displacement of [3H]-UK14304 from recombinant human alpha2c adrenergic receptor expressed in CHOK1 cell membranes after 30 mins by scintillation counting analysis; settings: CHO-K1
T1 sequence (whole entry): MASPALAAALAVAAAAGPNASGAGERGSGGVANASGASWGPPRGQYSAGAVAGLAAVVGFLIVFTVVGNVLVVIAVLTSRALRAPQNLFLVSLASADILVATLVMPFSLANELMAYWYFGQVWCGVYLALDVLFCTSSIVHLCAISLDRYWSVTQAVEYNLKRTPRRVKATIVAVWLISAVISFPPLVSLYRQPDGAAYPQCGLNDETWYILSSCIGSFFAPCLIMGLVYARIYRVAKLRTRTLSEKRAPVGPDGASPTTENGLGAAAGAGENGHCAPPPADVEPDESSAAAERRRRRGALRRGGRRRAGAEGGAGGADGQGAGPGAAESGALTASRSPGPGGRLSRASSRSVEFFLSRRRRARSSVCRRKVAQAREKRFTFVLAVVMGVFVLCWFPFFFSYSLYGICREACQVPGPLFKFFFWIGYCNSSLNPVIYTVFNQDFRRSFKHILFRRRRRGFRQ

[2] = target: T2, Alpha-2C adrenergic receptor (Homo sapiens, UniProt P18825); test: as §1; design: species or system CHO-K1
T2 sequence (P18825 whole entry): T1 sequence (whole entry)

[3] = target: T2, Alpha-2C adrenergic receptor; test: Agonist activity at recombinant human alpha2c adrenergic receptor expressed in CHOK1 cells co-expressing Gqi5 assessed as induction of cytoplasmic calcium mobilization measured for 40 secs by fluorometric analysis; type: functional, cell-based, CHO-K1
[4] = target: T1, Alpha-2C adrenergic receptor (Homo sapiens); test: Agonist activity at recombinant human alpha2c adrenergic receptor expressed in CHOK1 cells co-expressing Gqi5 assessed as induction of cytoplasmic calcium mobilization measured for 40 secs by fluorometric analysis relative to UK14304; type: functional, cell-based; settings: CHO-K1
[5] = target: Somatostatin receptor type 4 (Homo sapiens) (UniProt P31391); test: Agonist activity at recombinant human sst4 receptor expressed in CHOK1 cells co-expressing Galpha16 assessed as induction of cytoplasmic calcium mobilization at 250 uM measured for 40 secs by fluorometric analysis relative to L-803087; type: functional, cell-based; settings: CHO-K1
Chain of Somatostatin receptor type 4 (Homo sapiens) (P31391 whole entry): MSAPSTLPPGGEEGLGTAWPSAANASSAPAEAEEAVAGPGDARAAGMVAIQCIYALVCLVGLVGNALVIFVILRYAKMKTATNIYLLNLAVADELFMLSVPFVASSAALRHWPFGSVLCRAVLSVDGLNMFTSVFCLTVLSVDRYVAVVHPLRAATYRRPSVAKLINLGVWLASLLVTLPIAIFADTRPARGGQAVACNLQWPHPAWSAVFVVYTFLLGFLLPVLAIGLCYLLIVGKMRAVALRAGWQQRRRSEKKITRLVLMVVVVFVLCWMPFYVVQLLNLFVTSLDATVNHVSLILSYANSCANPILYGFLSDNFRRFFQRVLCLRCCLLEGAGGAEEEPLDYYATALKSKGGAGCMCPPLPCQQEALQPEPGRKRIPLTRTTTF

| Structure (SMILES) | Emax [1] | Ki [2] | EC50 [3] | Emax [4] | Activity [5] |
| --- | --- | --- | --- | --- | --- |
| CCNCC(=O)N1CCn2cccc2C1c1cccc(Cl)c1 (configuration not stated) | 99% | 7.24 µM | > 501 µM | > 88% | – |
| Cc1ccccc1Cn1ccnc1CNC(C)C | 102% | 22.4 µM | 148 µM | 55% | – |
| c1cncc(-c2ccccc2NCc2ccncc2)c1 | 98% | 1.07 µM | 3.47 µM | 56% | – |
| CN1CCN(c2cccc(N)c2)CC1 | – | 0.562 µM | – | – | – |
| CN1CCN(c2ccccc2N)CC1 | – | 0.24 µM | – | – | – |
| NCCCN(C(=O)c1ccccc1)c1ccccc1 | 104% | 8.32 µM | > 501 µM | > 51% | – |
| COc1ccc(C2NCCCn3cccc32)cc1 (configuration not stated) | – | 13.8 µM | – | – | – |
| N#Cc1cccc(-c2ccccc2CCN)c1 | 100% | 0.0117 µM | > 501 µM | > 75% | – |
| O=C(CCC1CCCC1)N1CCSC12CCNCC2 | 81% | 15.5 µM | > 501 µM | > 82% | – |
| NCCSc1nc2ccccc2o1 | 92% | 0.646 µM | 3.16 µM | 49% | – |
| OC(Cn1ccnc1)c1ccc(Cl)cc1Cl (configuration not stated) | 78% | 15.1 µM | 339 µM | 123% | – |
| c1ccc(-c2nc(CNCc3cccnc3)c[nH]2)cc1 | 102% | 5.25 µM | 479 µM | 87% | – |
| CN1CCN(c2ccc(N)cc2)CC1 | 100% | 1.51 µM | > 501 µM | > 36% | < 10% |

Continued by falling Ki [2], values first:

| Emax [1] | Ki [2] | EC50 [3] | Emax [4] | Structure (SMILES) | Activity [5] |
| --- | --- | --- | --- | --- | --- |
| 81% | 15.5 µM | 631 µM | 93% | NCC(=O)Nc1ccccc1Oc1ccccc1 | – |
| 81% | 10.5 µM | > 501 µM | > 77% | COc1ccccc1OCC1CNCCO1 (configuration not stated) | – |
| 97% | 1.17 µM | > 501 µM | > 105% | Brc1cccc(Cn2ccnc2)c1 | – |
| 92% | 0.537 µM | > 501 µM | > 66% | Cc1ccccc1NCc1ccncc1 | – |
| 92% | 0.0832 µM | 1.38 µM | 70% | Oc1cc2c(cc1O)C(c1ccccc1)CNCC2 (configuration not stated) [SKF-38393] | – |
| 100% | 0.0724 µM | 0.174 µM | 60% | Cc1ccccc1NCc1cnc[nH]1 | – |
| 102% | 0.00229 µM | 0.055 µM | 55% | c1ccc2c(CC3=NCCN3)cccc2c1 [NAPHAZOLINE] | – |
